Test results as given in PMC5981210, “Molecular recognition of wood polyphenols by phase II detoxification enzymes of the white rot Trametes versicolor” (Scientific Reports, 2018).
Values belong to the compound of their own block, whether it stands above or below them.

What was measured:
[1] = biological target: T1, TvGSTO1S (Trametes versicolor, UniProt R7S9J3); test: thermal shift assay, SYPRO Orange; type: binding; conditions: 100 µM ligand, 10 µM protein, Tris-HCl pH 8
T1 construct: gene TRAVEDRAFT_75639; produced in E. coli Rosetta2 DE3 pLysS
T1 sequence (R7S9J3 1-256): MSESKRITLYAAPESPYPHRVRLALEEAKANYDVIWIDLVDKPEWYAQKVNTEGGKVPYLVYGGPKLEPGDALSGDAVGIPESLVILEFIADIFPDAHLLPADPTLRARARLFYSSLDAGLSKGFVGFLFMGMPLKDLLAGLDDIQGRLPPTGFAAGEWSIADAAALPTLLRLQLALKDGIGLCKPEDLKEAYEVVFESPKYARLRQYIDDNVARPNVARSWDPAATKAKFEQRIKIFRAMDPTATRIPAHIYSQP
Text: thermal shift assay, SYPRO Orange on TvGSTO1S

[2] = biological target: T2, TvGSTO3S (Trametes versicolor, UniProt A0A384E145); test: inhibition of GSH-transferase activity, mixed model fit; type: biochemical; conditions: PEITC 25–300 µM as substrate, 1 mM GSH, 100 mM phosphate pH 6.4, 25 °C
T2 construct: produced in E. coli Rosetta2 DE3 pLysS; homodimer; serine-type omega GST
T2 sequence (A0A384E145 1-240): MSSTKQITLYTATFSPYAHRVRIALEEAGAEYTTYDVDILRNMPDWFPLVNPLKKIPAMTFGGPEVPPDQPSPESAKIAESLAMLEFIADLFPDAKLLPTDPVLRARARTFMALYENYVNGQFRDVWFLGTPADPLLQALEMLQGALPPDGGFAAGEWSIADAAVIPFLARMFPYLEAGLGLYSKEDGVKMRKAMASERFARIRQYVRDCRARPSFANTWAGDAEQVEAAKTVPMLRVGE

[3] = biological target: T3, TvGSTO6S (Trametes versicolor, UniProt A0A384E158); test: thermal shift assay, SYPRO Orange; type: binding; conditions: 100 µM ligand, 10 µM protein, Tris-HCl pH 8
T3 construct: produced in E. coli Rosetta2 DE3 pLysS; homodimer; serine-type omega GST
T3 sequence (A0A384E158 1-246): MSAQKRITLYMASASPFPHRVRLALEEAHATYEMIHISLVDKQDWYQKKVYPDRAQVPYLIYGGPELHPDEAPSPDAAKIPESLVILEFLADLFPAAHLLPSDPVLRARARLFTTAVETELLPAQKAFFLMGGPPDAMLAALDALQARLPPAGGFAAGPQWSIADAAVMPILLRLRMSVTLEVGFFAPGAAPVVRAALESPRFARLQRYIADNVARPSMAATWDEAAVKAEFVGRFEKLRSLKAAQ
Text: thermal shift assay, SYPRO Orange on TvGSTO6S

[4] = biological target: Trametes versicolor glutathione transferase Omega 6S (TvGSTO6S) (Trametes versicolor); test: crystal structure; TvGSTO6S (26 mg/mL) crystallised by hanging drop with seeding; 25% (w/v) PEG 1500, 0.1 M MMT buffer pH 6.5; apo and naringenin complex ('dry soaking'); homodimer in the crystal
[5] = biological target: T4, TvGSTO2S (Trametes versicolor, UniProt A0A452CSY5); test: thermal shift assay, SYPRO Orange; type: binding; conditions: 100 µM ligand, 10 µM protein, Tris-HCl pH 8
T4 construct: gene TRAPUB_12770; produced in E. coli Rosetta2 DE3 pLysS
T4 sequence (A0A452CSY5 1-239): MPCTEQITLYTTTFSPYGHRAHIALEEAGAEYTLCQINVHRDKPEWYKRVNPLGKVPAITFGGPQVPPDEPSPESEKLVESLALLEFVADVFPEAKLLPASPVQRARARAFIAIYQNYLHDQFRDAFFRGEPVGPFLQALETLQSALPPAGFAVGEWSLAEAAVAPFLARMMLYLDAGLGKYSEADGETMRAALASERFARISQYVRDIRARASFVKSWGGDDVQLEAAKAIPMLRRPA
Text: thermal shift assay, SYPRO Orange on TvGSTO2S

[6] = biological target: T5, TvGSTO5S (Trametes versicolor, UniProt R7S6M8); test: thermal shift assay, SYPRO Orange; type: binding; conditions: 100 µM ligand, 10 µM protein, Tris-HCl pH 8
T5 construct: gene TRAVEDRAFT_54358; produced in E. coli Rosetta2 DE3 pLysS
T5 sequence (R7S6M8 1-241): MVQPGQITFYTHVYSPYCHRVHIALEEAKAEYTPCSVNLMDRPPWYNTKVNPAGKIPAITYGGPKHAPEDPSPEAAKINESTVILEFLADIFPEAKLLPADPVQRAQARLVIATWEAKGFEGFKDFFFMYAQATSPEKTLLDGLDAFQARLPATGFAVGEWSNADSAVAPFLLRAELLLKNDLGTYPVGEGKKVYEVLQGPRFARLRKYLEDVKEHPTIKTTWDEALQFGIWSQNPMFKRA
Text: thermal shift assay, SYPRO Orange on TvGSTO5S

[7] = biological target: Trametes versicolor glutathione transferase Omega 3S (TvGSTO3S) (Trametes versicolor); test: crystal structure; TvGSTO3S (13 mg/mL) crystallised by microbatch under oil at 278 K; 30% (w/v) PEG 400, 0.2 M calcium acetate, 0.1 M acetate buffer pH 4.5; apo and ligand complexes; homodimer in the crystal

Compound: O=C(c1ccc(O)cc1)c1ccc(O)cc1O [2,4,4′-Trihydroxy benzophenone]
TvGSTO1S [1]: 2.74 °C

Compound: O=C(c1ccc(O)cc1O)c1ccc(O)cc1O [2,2′,4,4′-Tetrahydroxy benzophenone]
TvGSTO6S [3]: 3.40 °C
TvGSTO1S [1]: 3.74 °C

Compound: O=C(c1ccccc1)c1ccc(O)c(O)c1O [2,3,4-Trihydroxy benzophenone]
TvGSTO6S [3]: 4.15 °C
TvGSTO2S [5]: 2.92 °C
TvGSTO5S [6]: -12.89 °C

Second part, the compound after the results:

Ki [2]: 2890 ± 1240 nM
Compound: COc1c(O)cc(O)c2c(=O)cc(-c3ccccc3)oc12 [wogonin]

stoichiometry N [4]: 2
Compound: Trametes versicolor glutathione transferase Omega 6S (TvGSTO6S) (enzyme)

TvGSTO2S [5]: 2.56 °C
Compound: O=C(c1ccccc1)c1ccc(O)cc1O [2,4-Dihydroxy benzophenone]

stoichiometry N [7]: 2
Compound: Trametes versicolor glutathione transferase Omega 3S (TvGSTO3S) (enzyme)
